Numbers after ± are expanded uncertainties.
Assay: xn = mol fraction of the nth substance listed
Conditions: 101 kPa, Liquid; for speed of sound: Pulse-echo method; for mass density: Vibrating tube method

ClC(Cl)(Cl)Br [bromotrichloromethane] + BrCBr
Conditions	mass density, 293.15 K [kg/m3]	mass density, 298.15 K [kg/m3]	mass density, 303.15 K [kg/m3]	mass density, 308.15 K [kg/m3]	mass density, 313.15 K [kg/m3]	speed of sound, 293.15 K [m/s]	speed of sound, 298.15 K [m/s]	speed of sound, 303.15 K [m/s]	speed of sound, 308.15 K [m/s]	speed of sound, 313.15 K [m/s]
x1 = 0.0506	2455.57 ± 1.8	2442.67 ± 1.8	2429.69 ± 1.8	2416.74 ± 1.7	2403.73 ± 1.7	957 ± 1.2	944.4 ± 1.2	931.7 ± 1.2	919.1 ± 1.2	906.4 ± 1.2
x1 = 0.0993	2424.17 ± 1.8	2411.4 ± 1.7	2398.59 ± 1.7	2385.75 ± 1.7	2372.87 ± 1.7	953 ± 1.2	940.3 ± 1.2	927.6 ± 1.2	914.8 ± 1.2	902.2 ± 1.2
x1 = 0.1491	2392.98 ± 1.7	2380.34 ± 1.7	2367.61 ± 1.7	2354.94 ± 1.7	2342.21 ± 1.6	948.9 ± 1.2	936.2 ± 1.2	923.4 ± 1.2	910.7 ± 1.2	898.1 ± 1.2
x1 = 0.1991	2363.17 ± 1.7	2350.66 ± 1.7	2338.13 ± 1.6	2325.48 ± 1.6	2312.93 ± 1.6	945.3 ± 1.2	932.6 ± 1.2	919.8 ± 1.2	907.1 ± 1.2	894.4 ± 1.2
x1 = 0.2473	2335.59 ± 1.6	2323.21 ± 1.6	2310.8 ± 1.6	2298.33 ± 1.6	2285.84 ± 1.6	942.1 ± 1.2	929.3 ± 1.2	916.5 ± 1.2	903.7 ± 1.2	891 ± 1.2
x1 = 0.2986	2307.34 ± 1.6	2295.08 ± 1.6	2282.77 ± 1.6	2270.45 ± 1.6	2258.08 ± 1.5	939.1 ± 1.2	926.2 ± 1.2	913.2 ± 1.2	900.4 ± 1.2	887.7 ± 1.2
x1 = 0.3465	2281.89 ± 1.6	2269.75 ± 1.6	2257.58 ± 1.5	2245.37 ± 1.5	2233.11 ± 1.5	936.3 ± 1.2	923.3 ± 1.2	910.5 ± 1.2	897.6 ± 1.2	884.8 ± 1.2
x1 = 0.3979	2255.64 ± 1.5	2243.64 ± 1.5	2231.57 ± 1.5	2219.48 ± 1.5	2207.34 ± 1.5	933.6 ± 1.2	920.7 ± 1.2	907.7 ± 1.2	894.8 ± 1.2	882 ± 1.2
x1 = 0.4468	2231.41 ± 1.5	2219.49 ± 1.5	2207.52 ± 1.5	2195.5 ± 1.4	2183.5 ± 1.4	931.3 ± 1.2	918.3 ± 1.2	905.3 ± 1.2	892.4 ± 1.2	879.5 ± 1.2
x1 = 0.4967	2207.74 ± 1.5	2195.91 ± 1.4	2184.02 ± 1.4	2172.16 ± 1.4	2160.25 ± 1.4	929.1 ± 1.2	916.1 ± 1.2	903.1 ± 1.2	890.1 ± 1.2	877.1 ± 1.2
x1 = 0.5462	2185.38 ± 1.4	2173.66 ± 1.4	2161.9 ± 1.4	2150.12 ± 1.4	2138.31 ± 1.4	927.2 ± 1.2	914.1 ± 1.2	901.1 ± 1.2	888 ± 1.2	875.1 ± 1.2
x1 = 0.5975	2162.89 ± 1.4	2151.29 ± 1.4	2139.5 ± 1.4	2128 ± 1.4	2116.3 ± 1.4	925.3 ± 1.2	912.2 ± 1.2	899.1 ± 1.2	886.1 ± 1.2	873.1 ± 1.2
x1 = 0.6479	2141.49 ± 1.4	2130.01 ± 1.4	2118.46 ± 1.4	2106.9 ± 1.3	2095.25 ± 1.3	923.7 ± 1.2	910.6 ± 1.2	897.4 ± 1.2	884.4 ± 1.2	871.4 ± 1.2
x1 = 0.6947	2122.35 ± 1.4	2110.96 ± 1.4	2099.49 ± 1.3	2087.96 ± 1.3	2076.47 ± 1.3	922.4 ± 1.2	909.2 ± 1.2	896 ± 1.2	882.8 ± 1.2	869.9 ± 1.2
x1 = 0.7469	2101.9 ± 1.3	2090.59 ± 1.3	2079.21 ± 1.3	2067.83 ± 1.3	2056.41 ± 1.3	921 ± 1.2	907.7 ± 1.2	894.5 ± 1.2	881.4 ± 1.2	868.4 ± 1.2
x1 = 0.7959	2083.33 ± 1.3	2072.08 ± 1.3	2060.79 ± 1.3	2049.47 ± 1.3	2038.17 ± 1.3	919.9 ± 1.2	906.6 ± 1.2	893.4 ± 1.2	880.2 ± 1.2	867.1 ± 1.2
x1 = 0.8494	2063.55 ± 1.3	2052.39 ± 1.3	2041.21 ± 1.3	2030.02 ± 1.2	2018.79 ± 1.2	918.8 ± 1.2	905.5 ± 1.2	892.2 ± 1.2	879 ± 1.2	865.9 ± 1.2
x1 = 0.898	2046.2 ± 1.3	2035.13 ± 1.3	2024.04 ± 1.2	2012.93 ± 1.2	2001.78 ± 1.2	918 ± 1.2	904.6 ± 1.2	891.3 ± 1.2	878.1 ± 1.2	865 ± 1.2
x1 = 0.9469	2029.71 ± 1.2	2018.65 ± 1.2	2007.69 ± 1.2	1996.65 ± 1.2	1985.57 ± 1.2	917.4 ± 1.2	904 ± 1.2	890.6 ± 1.2	877.3 ± 1.2	864.1 ± 1.2
x1 = 1	2013.06 ± 1.2	2002.14 ± 1.2	1991.2 ± 1.2	1980.24 ± 1.2	1969.25 ± 1.2	917.1 ± 1.2	903.6 ± 1.2	890.2 ± 1.2	876.8 ± 1.2	863.6 ± 1.2

Reference: the NIST ThermoML archive (doi:10.1021/je300775u)
